# Test results as given in PMC5218480 (PLoS ONE, 2017).
# System: MV-4-11 cells
# Assay: Gene expression microarray analysis (Affymetrix PrimeView) and GSEA
# Format: cell-based, human
# Design: RFU PODN (11730768_x_at) / Fold change /veh PODN (11730768_x_at) / RFU LINC00158 (11744669_a_at) / Fold change /veh LINC00158 (11744669_a_at) / RFU DUSP10 (11751237_a_at) / Fold change /veh DUSP10 (11751237_a_at) / RFU ID3 (11757404_x_at) / Fold change /veh ID3 (11757404_x_at) / RFU PLEKHG5 (11737974_s_at) / Fold change /veh PLEKHG5 (11737974_s_at) / RFU LRRC4B (11730491_at) / Fold change /veh LRRC4B (11730491_at) / RFU GIMAP4 (11747438_a_at) / Fold change /veh GIMAP4 (11747438_a_at) / RFU KRT8 (11758183_x_at) / Fold change /veh KRT8 (11758183_x_at) / RFU CNN1 (11734310_a_at) / Fold change /veh CNN1 (11734310_a_at) / RFU VPS37D (11726825_at) / Fold change /veh VPS37D (11726825_at) / RFU C10orf10 (11716522_x_at) / Fold change /veh C10orf10 (11716522_x_at) / RFU KIR2DL2 /// KIR2DL4 /// KIR2DL5A /// KIR2DL5B /// KIR2DS1 /// KIR2DS2 /// KIR2DS3 /// KIR2DS4 /// KIR3DL3 /// KIR3DL3 /// KIR3DS1 (11738374_at) / Fold change /veh KIR2DL2 /// KIR2DL4 /// KIR2DL5A /// KIR2DL5B /// KIR2DS1 /// KIR2DS2 /// KIR2DS3 /// KIR2DS4 /// KIR3DL3 /// KIR3DL3 /// KIR3DS1 (11738374_at) / RFU C1QL1 (11718748_at) / Fold change /veh C1QL1 (11718748_at) / RFU TMPRSS4 (11747572_a_at) / Fold change /veh TMPRSS4 (11747572_a_at) / RFU HAMP (11756126_x_at) / Fold change /veh HAMP (11756126_x_at) / RFU RNFT2 (11725882_a_at) / Fold change /veh RNFT2 (11725882_a_at) / RFU NR4A2 (11747474_a_at) / Fold change /veh NR4A2 (11747474_a_at) / RFU ABCC12 (11746883_a_at) / Fold change /veh ABCC12 (11746883_a_at) / RFU TMEM136 (11760407_x_at) / Fold change /veh TMEM136 (11760407_x_at) / RFU CLDN22 /// WWC2 (11732394_at) / Fold change /veh CLDN22 /// WWC2 (11732394_at) / RFU HLA-DPB1 (11760878_x_at) / Fold change /veh HLA-DPB1 (11760878_x_at) / RFU SPINT1 (11716480_a_at) / Fold change /veh SPINT1 (11716480_a_at) / RFU GAP43 (11754022_s_at) / Fold change /veh GAP43 (11754022_s_at) / RFU A4GNT (11735810_at) / Fold change /veh A4GNT (11735810_at) / RFU PRB3 (11715151_x_at) / Fold change /veh PRB3 (11715151_x_at) / RFU TUBB4B (11761932_at) / Fold change /veh TUBB4B (11761932_at) / RFU CAPN14 (11732068_a_at) / Fold change /veh CAPN14 (11732068_a_at) / RFU TMCC2 (11721928_a_at) / Fold change /veh TMCC2 (11721928_a_at) / RFU IRGQ (11745062_a_at) / Fold change /veh IRGQ (11745062_a_at) / RFU FAM174B (11720279_a_at) / Fold change /veh FAM174B (11720279_a_at) / RFU TMPRSS4 (11748680_a_at) / Fold change /veh TMPRSS4 (11748680_a_at) / RFU FAM212B (11763350_a_at) / Fold change /veh FAM212B (11763350_a_at) / RFU PLEKHG5 (11743358_a_at) / Fold change /veh PLEKHG5 (11743358_a_at) / RFU ZSCAN30 (11745921_a_at) / Fold change /veh ZSCAN30 (11745921_a_at) / RFU CMKLR1 (11741424_a_at) / Fold change /veh CMKLR1 (11741424_a_at) / RFU LOC101060620 /// MAPK8IP1 (11723275_at) / Fold change /veh LOC101060620 /// MAPK8IP1 (11723275_at) / RFU SPTSSB (11747773_x_at) / Fold change /veh SPTSSB (11747773_x_at) / RFU PRSS12 (11739890_at) / Fold change /veh PRSS12 (11739890_at) / RFU BIN1 (11741810_x_at) / Fold change /veh BIN1 (11741810_x_at) / RFU WNT11 (11732464_a_at) / Fold change /veh WNT11 (11732464_a_at) / RFU C10orf10 (11716521_a_at) / Fold change /veh C10orf10 (11716521_a_at) / RFU C5orf56 (11738089_at) / Fold change /veh C5orf56 (11738089_at) / RFU CYB561 (11721691_x_at) / Fold change /veh CYB561 (11721691_x_at) / RFU ANKRD19P (11752326_a_at) / Fold change /veh ANKRD19P (11752326_a_at) / RFU OR2T12 /// OR2T33 /// OR2T8 (11738714_s_at) / Fold change /veh OR2T12 /// OR2T33 /// OR2T8 (11738714_s_at) / RFU VCAN (11748164_a_at) / Fold change /veh VCAN (11748164_a_at) / RFU JSRP1 (11732532_at) / Fold change /veh JSRP1 (11732532_at) / RFU KRTAP10-11 (11738290_x_at) / Fold change /veh KRTAP10-11 (11738290_x_at) / RFU MYO3A (11730013_a_at) / Fold change /veh MYO3A (11730013_a_at) / RFU EBF3 (11725865_a_at) / Fold change /veh EBF3 (11725865_a_at) / RFU CAMK2N1 (11719241_x_at) / Fold change /veh CAMK2N1 (11719241_x_at) / RFU C5orf56 (11738088_a_at) / Fold change /veh C5orf56 (11738088_a_at) / RFU OLFML3 (11715873_a_at) / Fold change /veh OLFML3 (11715873_a_at) / RFU LOC100653217 /// NTM (11731650_a_at) / Fold change /veh LOC100653217 /// NTM (11731650_a_at) / RFU MAPK11 (11762145_a_at) / Fold change /veh MAPK11 (11762145_a_at) / RFU FIZ1 (11724087_x_at) / Fold change /veh FIZ1 (11724087_x_at) / RFU OASL (11726364_x_at) / Fold change /veh OASL (11726364_x_at) / RFU SOX15 (11748057_x_at) / Fold change /veh SOX15 (11748057_x_at) / RFU CD79A (11719716_a_at) / Fold change /veh CD79A (11719716_a_at) / RFU HIST1H1D (11736915_at) / Fold change /veh HIST1H1D (11736915_at) / RFU CASKIN2 (11723855_a_at) / Fold change /veh CASKIN2 (11723855_a_at) / RFU LOC730098 (11760151_x_at) / Fold change /veh LOC730098 (11760151_x_at) / RFU OR4N2 (11742367_at) / Fold change /veh OR4N2 (11742367_at) / RFU PRRT2 (11749266_a_at) / Fold change /veh PRRT2 (11749266_a_at) / RFU SNX32 (11753110_a_at) / Fold change /veh SNX32 (11753110_a_at) / RFU CDHR5 (11726645_a_at) / Fold change /veh CDHR5 (11726645_a_at) / RFU RCAN1 (11760418_a_at) / Fold change /veh RCAN1 (11760418_a_at) / RFU FAM167A (11723789_a_at) / Fold change /veh FAM167A (11723789_a_at) / RFU FAM26E (11764081_at) / Fold change /veh FAM26E (11764081_at) / RFU ISYNA1 (11749810_s_at) / Fold change /veh ISYNA1 (11749810_s_at) / RFU ACY1 (11761880_at) / Fold change /veh ACY1 (11761880_at) / RFU 11764098_at / Fold change /veh 11764098_at / RFU SAMD14 (11745864_x_at) / Fold change /veh SAMD14 (11745864_x_at) / RFU NPB (11741838_a_at) / Fold change /veh NPB (11741838_a_at) / RFU TMPRSS6 (11731388_a_at) / Fold change /veh TMPRSS6 (11731388_a_at) / RFU KRTAP10-2 (11738614_at) / Fold change /veh KRTAP10-2 (11738614_at) / RFU ARHGAP8 /// PRR5-ARHGAP8 (11727945_x_at) / Fold change /veh ARHGAP8 /// PRR5-ARHGAP8 (11727945_x_at) / RFU KRTAP5-7 /// NADSYN1 (11734609_at) / Fold change /veh KRTAP5-7 /// NADSYN1 (11734609_at) / RFU RASL12 (11751679_a_at) / Fold change /veh RASL12 (11751679_a_at) / RFU CDKN2B (11736163_a_at) / Fold change /veh CDKN2B (11736163_a_at) / RFU PRF1 (11729649_at) / Fold change /veh PRF1 (11729649_at) / RFU, ZNF638 /// ZNF638-IT1 / Fold change vs veh, ZNF638 /// ZNF638-IT1 / RFU, PANK3 / Fold change vs veh, PANK3 / RFU, SH3YL1 / Fold change vs veh, SH3YL1 / RFU, ZEB2 / Fold change vs veh, ZEB2 / RFU, NRIP1 / Fold change vs veh, NRIP1 / RFU, PTTG1IP / Fold change vs veh, PTTG1IP / RFU, CAPN2 / Fold change vs veh, CAPN2 / RFU, MED14 / Fold change vs veh, MED14 / RFU, SNORA58 / Fold change vs veh, SNORA58 / RFU, C1orf63 / Fold change vs veh, C1orf63 / RFU, LRRFIP1 / Fold change vs veh, LRRFIP1 / RFU, NDUFAF7 / Fold change vs veh, NDUFAF7 / RFU, SLC12A2 / Fold change vs veh, SLC12A2 / RFU, IBTK / Fold change vs veh, IBTK / RFU, ESF1 / Fold change vs veh, ESF1 / Fold change vs veh, TMEM50B / RFU, TAOK1 / Fold change vs veh, TAOK1 / RFU, ACBD3 / Fold change vs veh, ACBD3 / RFU, TMA16 / Fold change vs veh, TMA16 / RFU, RWDD3 / Fold change vs veh, RWDD3 / RFU, BCAT1 / Fold change vs veh, BCAT1 / RFU, EDEM3 / Fold change vs veh, EDEM3 / RFU, TMEM33 / Fold change vs veh, TMEM33 / RFU, WDR75 / Fold change vs veh, WDR75 / RFU, AHCTF1 / Fold change vs veh, AHCTF1 / RFU, TFRC / Fold change vs veh, TFRC / RFU, ZDHHC17 / Fold change vs veh, ZDHHC17 / RFU, NOM1 / Fold change vs veh, NOM1 / RFU, ARL8B / Fold change vs veh, ARL8B / RFU, ZBTB11 / Fold change vs veh, ZBTB11 / RFU, TAMM41 / Fold change vs veh, TAMM41 / RFU, KIAA1704 /// LOC100996395 / Fold change vs veh, KIAA1704 /// LOC100996395 / RFU, ING1 / Fold change vs veh, ING1 / RFU, TRMT61B / Fold change vs veh, TRMT61B / RFU, FUBP3 / Fold change vs veh, FUBP3 / RFU, TP53 / Fold change vs veh, TP53 / RFU, TNKS2 / Fold change vs veh, TNKS2 / RFU, ZFP14 / Fold change vs veh, ZFP14 / RFU, ACTR2 / Fold change vs veh, ACTR2 / RFU, PPP3R1 / Fold change vs veh, PPP3R1 / RFU, PIK3R1 / Fold change vs veh, PIK3R1 / RFU, HNRNPA1 / Fold change vs veh, HNRNPA1 / RFU, RNF170 / Fold change vs veh, RNF170 / RFU, ZNF28 / Fold change vs veh, ZNF28 / RFU, RNGTT / Fold change vs veh, RNGTT / RFU, OGT / Fold change vs veh, OGT / RFU, BRD1 / Fold change vs veh, BRD1 / RFU, MARS / Fold change vs veh, MARS / RFU, ZNF655 / Fold change vs veh, ZNF655 / RFU, FAHD1 / Fold change vs veh, FAHD1 / RFU, BDP1 / Fold change vs veh, BDP1 / RFU, LRRCC1 / Fold change vs veh, LRRCC1 / RFU, ARID1A / Fold change vs veh, ARID1A / RFU, ZNF146 / Fold change vs veh, ZNF146 / RFU, ZNF330 / Fold change vs veh, ZNF330 / RFU, GPN3 / Fold change vs veh, GPN3 / RFU, C9orf123 / Fold change vs veh, C9orf123 / RFU, N4BP2L2 / Fold change vs veh, N4BP2L2 / RFU, ARFIP1 / Fold change vs veh, ARFIP1 / RFU, FAM179B / Fold change vs veh, FAM179B / RFU, BCL10 / Fold change vs veh, BCL10 / RFU, UHRF1BP1L / Fold change vs veh, UHRF1BP1L / RFU, BET1 / Fold change vs veh, BET1 / RFU, CNOT2 / Fold change vs veh, CNOT2 / RFU, ZNF268 / Fold change vs veh, ZNF268 / Fold change vs veh, ZNF507 / RFU, DGCR2 / Fold change vs veh, DGCR2 / RFU, WDSUB1 / Fold change vs veh, WDSUB1 / Fold change vs veh, HSP90B1 /// MIR3652 / RFU, ADSS / Fold change vs veh, ADSS / RFU, GK / Fold change vs veh, GK / RFU, ZNF148 / Fold change vs veh, ZNF148 / RFU, TAF9 / Fold change vs veh, TAF9 / RFU, SLC1A5 / Fold change vs veh, SLC1A5 / RFU, SLMO2 / Fold change vs veh, SLMO2 / RFU, ABCC4 / Fold change vs veh, ABCC4 / RFU, LOC101060439 /// RAP1B / Fold change vs veh, LOC101060439 /// RAP1B / RFU, RFX7 / Fold change vs veh, RFX7 / RFU, GTPBP10 / Fold change vs veh, GTPBP10 / RFU, CNEP1R1 / Fold change vs veh, CNEP1R1 / RFU, BIVM-ERCC5 /// ERCC5 / Fold change vs veh, BIVM-ERCC5 /// ERCC5 / RFU, ILF3 / Fold change vs veh, ILF3 / RFU 11762660_at / Fold change /veh 11762660_at / RFU VCAN (11757783_s_at) / Fold change /veh VCAN (11757783_s_at) / RFU DDX43 (11728927_at) / Fold change /veh DDX43 (11728927_at) / RFU KRT8 (11758188_x_at) / Fold change /veh KRT8 (11758188_x_at) / RFU NKD1 (11759106_at) / Fold change /veh NKD1 (11759106_at) / RFU SRD5A1 (11742802_a_at) / Fold change /veh SRD5A1 (11742802_a_at) / RFU TPSAB1 /// TPSB2 (11721975_s_at) / Fold change /veh TPSAB1 /// TPSB2 (11721975_s_at) / RFU GSTM3 (11746129_a_at) / Fold change /veh GSTM3 (11746129_a_at) / RFU IL23R (11737362_x_at) / Fold change /veh IL23R (11737362_x_at) / RFU TMEM51 (11727254_a_at) / Fold change /veh TMEM51 (11727254_a_at) / RFU PIWIL2 (11732686_x_at) / Fold change /veh PIWIL2 (11732686_x_at) / RFU ORM1 (11744905_x_at) / Fold change /veh ORM1 (11744905_x_at) / RFU CCDC152 (11743942_at) / Fold change /veh CCDC152 (11743942_at) / RFU ECM1 (11717891_a_at) / Fold change /veh ECM1 (11717891_a_at) / RFU IL23R (11748794_a_at) / Fold change /veh IL23R (11748794_a_at) / RFU TNFAIP8L3 (11732012_x_at) / Fold change /veh TNFAIP8L3 (11732012_x_at) / RFU MBOAT4 (11741988_at) / Fold change /veh MBOAT4 (11741988_at) / RFU 11764193_at / Fold change /veh 11764193_at / RFU TMEM53 (11763286_at) / Fold change /veh TMEM53 (11763286_at) / RFU MAGEB2 (11727129_at) / Fold change /veh MAGEB2 (11727129_at) / RFU TMEM200A (11744735_a_at) / Fold change /veh TMEM200A (11744735_a_at) / RFU CCDC152 (11751479_a_at) / Fold change /veh CCDC152 (11751479_a_at) / RFU FAM211A (11726209_a_at) / Fold change /veh FAM211A (11726209_a_at) / RFU RGS16 (11746705_a_at) / Fold change /veh RGS16 (11746705_a_at) / RFU VCAN (11755009_s_at) / Fold change /veh VCAN (11755009_s_at) / RFU RHOB (11743442_s_at) / Fold change /veh RHOB (11743442_s_at) / RFU RGS16 (11720943_a_at) / Fold change /veh RGS16 (11720943_a_at) / RFU RGS16 (11720944_at) / Fold change /veh RGS16 (11720944_at) / RFU, VPS4B / Fold change vs veh, VPS4B / RFU, CREB1 / Fold change vs veh, CREB1 / RFU, DNAJC13 / Fold change vs veh, DNAJC13 / RFU, GNAQ / Fold change vs veh, GNAQ / RFU, CDK5R1 / Fold change vs veh, CDK5R1 / RFU, ZRANB3 / Fold change vs veh, ZRANB3 / RFU, CUL4A / Fold change vs veh, CUL4A / RFU, CCNY / Fold change vs veh, CCNY / RFU, UFL1 / Fold change vs veh, UFL1 / RFU, COG3 / Fold change vs veh, COG3 / RFU, DIAPH2 / Fold change vs veh, DIAPH2 / RFU, SKA2 / Fold change vs veh, SKA2 / RFU, AFF3 / Fold change vs veh, AFF3 / RFU, LMF1 / Fold change vs veh, LMF1 / RFU, IPO11 / Fold change vs veh, IPO11 / RFU, DFFB / Fold change vs veh, DFFB / RFU, FOXP1 / Fold change vs veh, FOXP1 / RFU, CARD8 / Fold change vs veh, CARD8 / RFU, STRN3 / Fold change vs veh, STRN3 / RFU, ADK / Fold change vs veh, ADK / RFU, RASSF2 / Fold change vs veh, RASSF2 / RFU, WIPF1 / Fold change vs veh, WIPF1 / RFU, LARP1B / Fold change vs veh, LARP1B / RFU, RASA1 / Fold change vs veh, RASA1 / RFU, RB1 / Fold change vs veh, RB1 / RFU, PPFIA1 / Fold change vs veh, PPFIA1 / RFU, MAT2A / Fold change vs veh, MAT2A / RFU, CCT5 / Fold change vs veh, CCT5 / RFU, WDR92 / Fold change vs veh, WDR92 / RFU, CUX1 / Fold change vs veh, CUX1 / RFU, TTC7A / Fold change vs veh, TTC7A / RFU, TMEM135 / Fold change vs veh, TMEM135 / RFU, DEPTOR / Fold change vs veh, DEPTOR / RFU, CPM / Fold change vs veh, CPM / RFU, DNAJB6 / Fold change vs veh, DNAJB6 / RFU, CACNA2D3 / Fold change vs veh, CACNA2D3 / RFU, DTX4 / Fold change vs veh, DTX4 / RFU, TFCP2 / Fold change vs veh, TFCP2 / RFU, GMCL1 /// GMCL1P1 / Fold change vs veh, GMCL1 /// GMCL1P1 / RFU, AEBP2 / Fold change vs veh, AEBP2 / RFU, SNHG1 /// SNORD22 /// SNORD25 /// SNORD26 /// SNORD27 /// SNORD28 /// SNORD29 /// SNORD31 / Fold change vs veh, SNHG1 /// SNORD22 /// SNORD25 /// SNORD26 /// SNORD27 /// SNORD28 /// SNORD29 /// SNORD31 / Fold change (Aza/veh), C12orf56 (ProbeSet 11735607_a_at) / Fold change (ACY-1035/veh), C12orf56 (ProbeSet 11735607_a_at) / Fold change (Aza/veh), FGFR1OP (ProbeSet 11751329_s_at) / Fold change (ACY-1035/veh), FGFR1OP (ProbeSet 11751329_s_at) / Fold change (Aza/veh), VPS36 (ProbeSet 11739960_a_at) / Fold change (ACY-1035/veh), VPS36 (ProbeSet 11739960_a_at) / RFU SYPL1 (11715823_x_at) / Fold change /veh SYPL1 (11715823_x_at) / RFU IGFBP7 (11715501_s_at) / Fold change /veh IGFBP7 (11715501_s_at) / RFU REEP3 (11722064_at) / Fold change /veh REEP3 (11722064_at) / RFU IGLL1 (11728026_x_at) / Fold change /veh IGLL1 (11728026_x_at): dose or concentration left out as unconfirmed
# Conditions: ProbeSet 11740011_at; LIST B
structure (smiles),measurement,value
Nc1ccc(-c2cccs2)cc1NC(=O)c1ccc2c(c1)cc(C1CC1)n2CCN1CCOCC1 [ACY-1035],"Fold change vs veh, ZFP14",1.03
